In US12479858B2, “Macrocyclic compounds as sting agonists and methods and uses thereof” (Lupin Limited, priority 2019, dated 2025):
Counter-ions that a name gives are not always drawn. Like-named read-outs stand apart in the source and are kept apart here.

How the values were obtained:
Human STING = molecular target: T1, Human STING (Homo sapiens, UniProt Q86WV6, G230A/H232R/R293Q/R71H); test: Stimulation of human STING signaling in THP1 cell line (THP1-Blue ISG SEAP reporter); assay type: cell-based; settings: THP1-Blue ISG cells, SEAP activity, 18-20 hours
T1 construct: using human THP1-Blue™ ISG SEAP based reporter cell line (Invivogen); host or cells: THP1-Blue ISG cells (human monocytic THP-1 derived SEAP reporter line)
Procedure, shortened: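 THP1-Blue ISG reporter cells dosed with compound over a concentration range for 18-20 h at 37 °C, 5% CO2. SEAP in supernatant read by QuantiBlue absorbance at 620 nm. EC50 fitted from duplicate points; fold induction taken relative to unstimulated cells.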

[1] = Plasma and tumor compound concentrations in CT26 tumor-bearing mice (LC-MS/MS); assay type: in vivo, BALB/c mice; settings: 0.375 mg/kg single i.v.; for concentration at 3.5 h / concentration at 8 h / concentration at 12 h / concentration at 24 h: BALB/c, mouse, intravenous; for concentration at 3.5 h: 3.5 h (Table 4); for concentration at 8 h: 8 h (Table 4); for concentration at 12 h: 12 h (Table 4)
Method: (§1) Pharmacokinetic and Pharmacodynamic Profiling and Estimation of Immune Cell Infiltration in Tumors Following Treatment with Compounds 2, 6, 8, 12 and 14
(§2) Serum and tumor cytokine levels and corresponding compound concentrations in mouse plasma were determined following single-dose intravenous administration in CT26 (murine colorectal carcinoma) tumor-bearing mice. Briefly, naïve BALB/c mice in the age group of 6-8 weeks were inoculated with 0.1 million CT-26 cells/animal in phosphate buffered saline (PBS), subcutaneously. […] Blood and tumor samples were harvested at various time points up to 24 h post-dose. Tumor samples were homogenized and prepared for cytokine estimation (ELISA) and compound concentration were determined by LC-MS/MS. Serum aliquots and tumor samples were snap-frozen and stored at −80° C. till further analysis. Serum and tumor samples were evaluated for Interferon beta (IFNβ), interleukin-6 (IL-6) and tumor necrosis factor alpha (TNFα) by enzyme linked immunosorbent assay (ELISA) using kits from R & D systems (Quantikine mouse IL-6 and TNFα kits) and PBL biosciences (Verikine mouse IFNβ kit).
Bioanalysis of plasma and tumor samples: Plasma and tumor concentrations of test compounds were determined by LC-MS/MS method. Tumor samples were homogenized utilizing a bead-based homogenizer. Plasma samples and tumor homogenates were extracted using protein precipitation method with organic solution containing respective internal standards. Plasma and tumor concentrations were determined against respective calibration curve. Table 3 indicates the concentration of Compound 2 in plasma and tumor at different administered doses. Table 4 indicates the concentration of Compounds 6, 8, 12, and 14 in plasma and tumor at different administered doses. Table 5 indicates cytokine levels for Compound 2 in serum and tumor at different doses. Table 6 indicates cytokine levels for Compounds 6, 8, 12 and 14 in serum and tumor at 0.375 mpk.

[2] = tested on: Interferon beta (IFNβ), interleukin-6 (IL-6) and tumor necrosis factor alpha (TNFα); test: Serum and tumor cytokine levels in CT26 tumor-bearing mice (ELISA); assay type: in vivo, BALB/c mice; settings: 0.375 mg/kg single i.v.
Method: as §1, §2
Cytokine analysis from mouse serum samples: For IL-6 and TNFα estimation, 50 μL of test samples or internal standard or control were applied to wells in duplicates and incubated for 2 h at room temperature, followed by aspiration and washing four times with 400 μL of wash buffer. 100 μL of mouse IL-6 or TNFα conjugate solution was added and incubated further for 2 h at room temperature and followed later by 4 wash cycles. 100 μL of substrate solution was added to each well with addition of stop solution after 30 min. Optical density was measured at 450 nm averaged and was used for further calculations following subtraction of respective blank controls. Cytokine concentrations were determined by interpolating the optical density of samples into the reference standard curve utilizing four parameter logistic (4-PL) curve-fit. Cytokine concentrations were normalized with their respective dilution factors and represented in pg/mL. For IFNβ estimation, 100 μL test sample or internal standard or controls were applied to the wells in duplicates and incubated for 1 h at room temperature followed by three washes and addition of the anti-mouse IFNβ antibody solution with further 1 h incubation. This was followed by addition of horseradish peroxidase (HRP) solution and three washes, later addition of TMB substrate and reading the optical density at 450 nm. Optical densities were blank-subtracted and interpolated to the reference standard utilizing the four parameter logistic (4-PL) curve-fit. Cytokine concentrations were normalized with their respective dilution factors and represented in pg/mL. Tables 4 and 5 indicate cytokine levels for compounds 2, 6, 8, 12, and 14 in serum and tumor at different administered doses.
Cytokine analysis from tumor samples: Tumor samples were homogenized in a bead-based homogenizer and lysates were prepared with buffer supplemented with 1% Triton X-100 and protease inhibitors. Cytokine levels were estimated by ELISA and expressed as pg/g tumor.

CD3^+CD8^+ T cells = test: Estimation of immune cell infiltration in tumors (flow cytometry); assay type: in vivo, Balb/c mice; settings: for % CD3^+CD8^+ T cells: infiltration in tumor, 96 h post treatment, 0.375 mg/kg single i.v.; for % CD3^+CD8^+ T cells infiltrating the tumor as compared to the vehicle-treated group: single i.v. dose of 0.375 mg/kg, 96 h post treatment initiation
Method: Estimation of immune cell infiltration in tumors: CT-26 tumor-bearing Balb/c mice were treated intravenously with 0.375 mg/kg of test compounds and blood and tumors were processed for analysis of CD8^+, CD3^+ and CD45^+ T cells at 24 h and 96 h after start of treatment. Blood samples were subjected to RBC lysis and the cells were recovered by centrifugation. Following wash with PBS, the cells were blocked using TruStain FcX™ blocking antibody and stained with fluorophore-tagged anti-CD45, anti-CD3 and anti-CD8 antibodies. Tumor samples were minced and subjected to tissue digestion using freshly prepared collagenase-IV solution (1 mg/ml) containing DNase (0.05 mg/ml) for 1-1.5 h at 37° C. and 150-200 rpm. Single cell suspension was prepared by filtering it through a 100 μm mesh and checked for cell viability. Cells were stained with various antibodies as mentioned above. The distinct T cell subsets were analysed on FACS Canto II (BD) and percentage of each population was calculated after initial gating of CD45^+ lymphocyte population.

[3] = tumor, 24 h (Table 4), read-out: Tumor Conc.

T1 sequence (Q86WV6 whole entry R71H/G230A/H232R/R293Q): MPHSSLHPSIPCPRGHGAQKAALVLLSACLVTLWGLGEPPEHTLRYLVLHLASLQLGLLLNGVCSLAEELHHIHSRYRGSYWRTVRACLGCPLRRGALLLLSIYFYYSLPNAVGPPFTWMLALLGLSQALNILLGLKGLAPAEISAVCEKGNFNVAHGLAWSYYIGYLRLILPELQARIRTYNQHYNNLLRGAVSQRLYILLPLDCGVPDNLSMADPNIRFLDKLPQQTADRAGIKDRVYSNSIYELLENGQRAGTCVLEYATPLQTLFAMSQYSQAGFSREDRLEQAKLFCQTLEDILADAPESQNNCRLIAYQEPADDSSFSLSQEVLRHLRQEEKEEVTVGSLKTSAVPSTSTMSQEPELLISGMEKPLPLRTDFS

SMILES	EC50 (Human STING)	Plasma Conc. ([1]; 24 h (Table 4))	concentration at 3.5 h ([1]; plasma, read-out: Plasma Conc.)	concentration at 8 h ([1]; plasma, read-out: Plasma Conc.)	concentration at 12 h ([1]; plasma, read-out: Plasma Conc.)	concentration at 3.5 h ([1]; tumor, read-out: Tumor Conc.)	concentration at 8 h ([1]; tumor, read-out: Tumor Conc.)	concentration at 12 h ([1]; tumor, read-out: Tumor Conc.)	concentration at 24 h [1, 3]	Serum IFNβ ([2]; 3.5 h (Table 6))	Tumor IFNβ ([2]; 3.5 h (Table 6))	Serum IFNβ ([2]; 8 h (Table 6))	Tumor IFNβ ([2]; 8 h (Table 6))	Serum IFNβ ([2]; 12 h (Table 6))	Tumor IFNβ ([2]; 12 h (Table 6))	Serum IFNβ ([2]; 24 h (Table 6))	Tumor IFNβ ([2]; 24 h (Table 6))	% CD3^+CD8^+ T cells (CD3^+CD8^+ T cells)	% CD3^+CD8^+ T cells infiltrating the tumor as compared to the vehicle-treated group (CD3^+CD8^+ T cells)	also measured
CCn1nc(C)cc1C(=O)Nc1nc2cc(C(N)=O)cc3c2n1C/C=C/Cn1c(NC(=O)c2cc(C)nn2CC)nc2cc(C(=O)N[C@H]4CC[C@H](c5nnn[nH]5)CC4)cc(c21)OCCCO3 [Compound 6, (E)-N-((1R,4R)-4-(1H-tetrazol-5-yl)cyclohexyl)-1,15-bis(1-ethyl-3-methyl-1H-pyrazole-5-carboxamido)-8,9,16,19-tetrahydro-7H-6,10-dioxa-2,14,15a,19a-tetraazacyclopentadeca[3,2,1-cd:8,9,10-c′d′]diindene-4,12-dicarboxamide sodium salt]	1 to 10 nM	0.01, BLQ,	0.44 ± 0.14 µM	0.13 ± 0.06 µM	0.05 ± 0.01 µM	0.29 ± 0.12 µM	0.25 ± 0.04 µM	0.2 ± 0.05 µM	0.26 ± 0.03 µM	3375 ± 528.4 pg/mL	6931 ± 1236.8 pg/g tumor	215 ± 39.9 pg/mL	1814 ± 369.3 pg/g tumor	BLQ	1916 ± 842.7 pg/g tumor	BLQ	506 ± 239.1 pg/g tumor	13.9 ± 1.3%	increase	
CCn1nc(C)cc1C(=O)Nc1nc2cc(C(N)=O)cc3c2n1C/C=C/Cn1c(NC(=O)c2cc(C)nn2CC)nc2cc(C(=O)NCCCn4cc(C(=O)O)cn4)cc(c21)OCCCO3 [Compound 8, (E)-1-(3-(12-carbamoyl-1,15-bis(1-ethyl-3-methyl-1H-pyrazole-5-carboxamido)-8,9,16,19-tetrahydro-7H-6,10-dioxa-2,14,15a,19a-tetraazacyclopentadeca[3,2,1-cd:8,9,10-c′d′]diindene-4-carboxamido)propyl)-1H-pyrazole-4-carboxylic acid sodium salt]	1 to 10 nM	BLQ	0.04 ± 0.01 µM	0.02 ± 0.01 µM	0.02 ± 0.01 µM	0.09 ± 0.01 µM	0.06 ± 0.01 µM	0.06 µM		20553 ± 3011.24 pg/mL	7975 ± 1164.2 pg/g tumor	307 ± 64.6 pg/mL	1182 ± 321.2 pg/g tumor	43 ± 33.5 pg/mL	284 ± 84.2 pg/g tumor	BLQ	197 ± 84.7 pg/g tumor	15.5 ± 2.2%	increase	Tumor Conc. ([1]; 24 h (Table 4)): BLQ
CCn1nc(C)cc1C(=O)Nc1nc2cc(C(N)=O)cc3c2n1C/C=C/Cn1c(NC(=O)c2cc(C)nn2CC)nc2cc(C(=O)N[C@H]4CC[C@H](c5nnn[nH]5)CC4)cc(c21)OC[C@@H](N1C2CCC1COC2)CO3 [Compound 12, (8S,E)-N4-((1R,4S)-4-(1H-tetrazol-5-yl)cyclohexyl)-8-(3-oxa-8-azabicyclo[3.2.1]octan-8-yl)-1,15-bis(1-ethyl-3-methyl-1H-pyrazole-5-carboxamido)-8,9,16,19-tetrahydro-7H-6,10-dioxa-2,14,15a,19a-tetraazacyclopentadeca[3,2,1-cd:8,9,10-c′d′]diindene-4,12-dicarboxamide sodium salt]	1 to 10 nM		0.44 ± 0.05 µM	0.18 ± 0.05 µM	0.09 ± 0.02 µM	0.36 ± 0.13 µM	0.19 ± 0.08 µM	0.3 ± 0.12 µM	0.13 ± 0.04 µM	4248 ± 706 pg/mL	6190 ± 687.0 pg/g tumor	568 ± 48.6 pg/mL	1144 ± 128.9 pg/g tumor	16 ± 15.7 pg/mL	789 ± 378.2 pg/g tumor	BLQ	94 ± 48.3 pg/g tumor	12.2 ± 0.5%	increase	concentration at 24 h ([1]; plasma, 24 h (Table 4), read-out: Plasma Conc.): 0.02 µM
